Activity calls are given as the source filed them.

For one assay, the system named is HEK293. Kind of assay: Fluorescence-based counterscreen for potentiators or agonists of NPY-Y1: cell-based high-throughput dose response assay for inhibitors of cyclic nucleotide gated ion channel (CNGC) activity. In this assay, the parental HEK293 cell line transfected with a cyclic-nucleotide gated ion channel (CNGC)-based cAMP sensor is used to measure inhibition of isoproterenol-induced CNGC …. The format is functional. Particulars: Homo sapiens.

The target in a further assay is T1, Estrogen receptor (Homo sapiens, UniProt P03372).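 Also: potency for inhibiting coactivator peptide recruitment to the receptor.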
T1 sequence (P03372 whole entry): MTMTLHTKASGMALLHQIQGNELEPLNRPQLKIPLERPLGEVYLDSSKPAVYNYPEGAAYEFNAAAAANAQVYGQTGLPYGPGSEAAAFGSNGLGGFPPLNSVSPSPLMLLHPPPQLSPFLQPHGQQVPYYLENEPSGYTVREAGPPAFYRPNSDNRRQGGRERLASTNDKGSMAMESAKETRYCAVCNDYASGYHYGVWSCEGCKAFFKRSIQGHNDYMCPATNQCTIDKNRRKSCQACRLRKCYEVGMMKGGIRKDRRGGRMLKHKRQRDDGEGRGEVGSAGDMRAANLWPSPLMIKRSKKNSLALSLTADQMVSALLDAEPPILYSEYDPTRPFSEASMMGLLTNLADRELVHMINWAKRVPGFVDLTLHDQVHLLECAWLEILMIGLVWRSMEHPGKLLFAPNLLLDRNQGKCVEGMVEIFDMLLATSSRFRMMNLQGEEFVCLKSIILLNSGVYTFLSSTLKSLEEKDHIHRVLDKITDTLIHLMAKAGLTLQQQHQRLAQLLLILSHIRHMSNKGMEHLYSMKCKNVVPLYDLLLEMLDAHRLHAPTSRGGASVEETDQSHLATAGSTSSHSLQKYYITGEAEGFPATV

In assay [1] the target is T2, Neuropeptide Y receptor type 2 (Homo sapiens, UniProt P49146).
T2 sequence (P49146 whole entry): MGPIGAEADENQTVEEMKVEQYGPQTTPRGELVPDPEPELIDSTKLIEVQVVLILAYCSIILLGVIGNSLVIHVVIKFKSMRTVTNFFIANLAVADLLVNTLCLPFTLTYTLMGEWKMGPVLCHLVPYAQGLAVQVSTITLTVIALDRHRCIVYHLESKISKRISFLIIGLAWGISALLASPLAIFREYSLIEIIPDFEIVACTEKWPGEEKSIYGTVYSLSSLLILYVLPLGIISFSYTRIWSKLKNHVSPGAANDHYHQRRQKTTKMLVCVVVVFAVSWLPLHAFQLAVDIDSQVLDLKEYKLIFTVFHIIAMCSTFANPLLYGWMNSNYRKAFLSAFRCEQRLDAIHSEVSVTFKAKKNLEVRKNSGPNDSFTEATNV
Kind of assay: Fluorescence-based counterscreen for agonists of NPY-Y1: cell-based high-throughput dose response assay for agonists of NPY-Y2. The format is functional.

The target in assay [2] is T3, Neuropeptide Y receptor type 1 (Homo sapiens, UniProt P25929).
T3 sequence (P25929 whole entry): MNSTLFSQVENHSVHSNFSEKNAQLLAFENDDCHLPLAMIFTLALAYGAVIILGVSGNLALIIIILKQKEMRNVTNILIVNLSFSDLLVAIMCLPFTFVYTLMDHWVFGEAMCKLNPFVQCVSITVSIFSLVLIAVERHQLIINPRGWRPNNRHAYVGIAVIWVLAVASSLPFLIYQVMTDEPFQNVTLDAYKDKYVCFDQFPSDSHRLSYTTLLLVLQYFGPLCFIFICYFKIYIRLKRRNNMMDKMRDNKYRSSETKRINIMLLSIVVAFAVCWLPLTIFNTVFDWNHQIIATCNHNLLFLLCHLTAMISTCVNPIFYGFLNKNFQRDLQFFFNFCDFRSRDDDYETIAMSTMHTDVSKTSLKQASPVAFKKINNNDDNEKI
Kind of assay: Fluorescence-based dose response cell-based high-throughput screening assay for agonists of NPY-Y1. [Related pubchem assays: 1697 (Screening assay (NPY-Y1 agonists).), 1359 (Screening assay (NPY-Y2 potentiators or agonists).), 1304 (Screening assay (NPY-Y1 potentiators or agonists).), 1704 (Screening assay (CNGC inhibitors).), 1791 (Summary AID.)]. The format is functional.

The nature of assay [3]: M. tuberculosis growth inhibition, HTS (AID 449762). The format is functional.
The target in assay [4] is Neuropeptides B/W receptor type 1 (Homo sapiens, UniProt P48145). The assay can be described thus: Fluorescence-based dose response cell-based high throughput screening assay to identify antagonists of the G-protein coupled receptor 7 (GPR7). [Related pubchem assays: 1952 (Screening assay (GPR7 antagonists).), 1880 (Summary AID.)]. The format is functional.
Chain of Neuropeptides B/W receptor type 1 (P48145 whole entry, the tested form may be a part): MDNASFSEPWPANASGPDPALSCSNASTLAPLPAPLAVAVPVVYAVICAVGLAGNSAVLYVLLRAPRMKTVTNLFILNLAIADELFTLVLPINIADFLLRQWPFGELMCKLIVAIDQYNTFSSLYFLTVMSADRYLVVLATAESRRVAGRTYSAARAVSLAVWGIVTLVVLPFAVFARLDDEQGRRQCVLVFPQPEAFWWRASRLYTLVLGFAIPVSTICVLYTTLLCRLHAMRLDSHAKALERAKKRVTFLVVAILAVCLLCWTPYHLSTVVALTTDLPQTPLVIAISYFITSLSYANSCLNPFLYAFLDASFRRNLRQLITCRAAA
The target of assay [5] is T4, Oxysterols receptor LXR-beta (Homo sapiens, UniProt P55055).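 Also: agonist activity at LXR measured by a cell-based luminescence readout across a dose range, run as a counterscreen for daf-12 agonists; HEK293 cells with Gal4-LXR fusion and GAL4-driven luciferase reporter; potency for activation of Gal4-LXR reporter so compounds are agonists.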
T4 sequence (P55055 whole entry): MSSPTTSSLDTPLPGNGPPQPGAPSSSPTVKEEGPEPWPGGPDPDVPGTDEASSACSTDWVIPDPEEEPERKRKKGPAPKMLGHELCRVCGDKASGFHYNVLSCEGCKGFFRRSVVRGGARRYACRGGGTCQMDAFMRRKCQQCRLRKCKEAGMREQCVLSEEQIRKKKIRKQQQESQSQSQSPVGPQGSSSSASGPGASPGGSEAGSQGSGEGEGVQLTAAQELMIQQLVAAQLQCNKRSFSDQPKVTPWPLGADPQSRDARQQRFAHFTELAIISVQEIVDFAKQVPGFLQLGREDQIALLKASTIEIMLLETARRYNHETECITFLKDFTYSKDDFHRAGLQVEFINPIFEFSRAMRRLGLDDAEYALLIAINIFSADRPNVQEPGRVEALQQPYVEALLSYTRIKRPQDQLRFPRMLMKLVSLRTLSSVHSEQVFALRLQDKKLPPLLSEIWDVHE
The format is functional, cell-based.

Assay [6] deals with Melanin-concentrating hormone receptor 1 (Homo sapiens, UniProt Q99705). Kind of assay: Fluorescence-based counterscreen for antagonists of the G-protein coupled receptor 7 (GPR7): cell-based high throughput dose response assay to identify antagonists of the melanin-concentrating hormone receptor 1 (MCHR1). The format is functional.
Chain of Melanin-concentrating hormone receptor 1 (Q99705 whole entry): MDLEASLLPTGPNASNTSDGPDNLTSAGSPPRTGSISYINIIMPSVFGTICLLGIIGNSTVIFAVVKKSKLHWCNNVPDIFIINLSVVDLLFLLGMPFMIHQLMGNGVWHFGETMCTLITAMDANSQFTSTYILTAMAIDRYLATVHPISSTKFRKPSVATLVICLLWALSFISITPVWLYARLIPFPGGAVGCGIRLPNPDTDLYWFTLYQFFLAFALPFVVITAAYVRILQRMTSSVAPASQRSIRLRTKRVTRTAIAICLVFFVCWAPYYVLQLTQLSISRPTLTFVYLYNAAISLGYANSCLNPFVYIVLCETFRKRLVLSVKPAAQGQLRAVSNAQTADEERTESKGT
For assay [7], the target named is T5, Dual specificity protein phosphatase 3 (Homo sapiens, UniProt P51452). Kind of assay: inhibition constants for human DUSP3 – biochemical, colorimetric, SAR follow-up (AID 2004).
T5 sequence (P51452 whole entry): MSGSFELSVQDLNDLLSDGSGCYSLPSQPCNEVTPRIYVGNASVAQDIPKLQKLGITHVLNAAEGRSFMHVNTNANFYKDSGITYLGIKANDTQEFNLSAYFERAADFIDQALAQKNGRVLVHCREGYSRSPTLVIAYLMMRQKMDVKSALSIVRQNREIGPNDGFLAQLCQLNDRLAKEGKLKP
The target of assay [8] is T6, Dual specificity protein phosphatase 6 (Rattus norvegicus, UniProt Q64346).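 Also: confirmatory in vitro dose-response testing of MKP-3 inhibition; recombinant His-tagged MKP-3 made in E. coli BL21 with OMFP substrate.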
T6 sequence (Q64346 whole entry): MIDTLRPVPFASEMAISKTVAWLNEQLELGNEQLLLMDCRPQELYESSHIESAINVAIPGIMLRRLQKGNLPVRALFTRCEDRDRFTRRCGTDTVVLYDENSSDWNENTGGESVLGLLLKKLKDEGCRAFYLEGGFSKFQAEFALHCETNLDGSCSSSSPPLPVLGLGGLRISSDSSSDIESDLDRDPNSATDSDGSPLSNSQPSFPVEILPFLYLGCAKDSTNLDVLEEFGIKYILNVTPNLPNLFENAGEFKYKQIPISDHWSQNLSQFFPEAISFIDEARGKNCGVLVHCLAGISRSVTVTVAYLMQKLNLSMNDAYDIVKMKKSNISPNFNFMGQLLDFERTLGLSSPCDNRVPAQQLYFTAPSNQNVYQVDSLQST
The format is functional.

In assay [9] the target is T7, Tyrosine-protein phosphatase non-receptor type 22 (Homo sapiens, UniProt Q9Y2R2).
T7 sequence (Q9Y2R2 whole entry): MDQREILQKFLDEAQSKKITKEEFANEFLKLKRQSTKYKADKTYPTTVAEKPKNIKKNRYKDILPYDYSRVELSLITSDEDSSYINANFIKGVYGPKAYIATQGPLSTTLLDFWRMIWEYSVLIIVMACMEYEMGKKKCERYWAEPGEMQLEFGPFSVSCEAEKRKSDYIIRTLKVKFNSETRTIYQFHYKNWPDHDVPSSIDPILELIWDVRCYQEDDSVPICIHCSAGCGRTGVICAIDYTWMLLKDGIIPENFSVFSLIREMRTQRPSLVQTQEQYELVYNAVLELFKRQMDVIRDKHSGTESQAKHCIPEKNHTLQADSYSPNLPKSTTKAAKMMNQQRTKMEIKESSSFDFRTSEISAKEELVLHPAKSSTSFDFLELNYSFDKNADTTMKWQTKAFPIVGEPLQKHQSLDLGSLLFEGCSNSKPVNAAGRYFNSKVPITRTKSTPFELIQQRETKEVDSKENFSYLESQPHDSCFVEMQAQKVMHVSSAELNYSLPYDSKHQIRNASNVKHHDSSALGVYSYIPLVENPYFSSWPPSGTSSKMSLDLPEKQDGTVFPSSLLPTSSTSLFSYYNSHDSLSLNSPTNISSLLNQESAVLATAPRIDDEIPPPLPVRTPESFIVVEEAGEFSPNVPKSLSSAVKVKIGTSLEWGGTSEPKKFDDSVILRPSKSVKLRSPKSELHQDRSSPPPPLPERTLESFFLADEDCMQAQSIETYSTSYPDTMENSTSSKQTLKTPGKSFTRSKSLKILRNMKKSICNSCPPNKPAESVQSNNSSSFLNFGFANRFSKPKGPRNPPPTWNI
The assay can be described thus: SAR LYP1 Fluorescent Assay using OMFP substrate for In Vitro dose response studies - Set 3. [Related pubchem assays (depositor defined):AID1779, AID1784, AID2140, AID2686]. The format is functional.

Assay [10] deals with DNA (cytosine-5)-methyltransferase 1 (Homo sapiens, UniProt P26358). The assay can be described thus: inhibition of DNA methylation by DNMT1 – biochemical, fluorescent molecular beacon, confirmation (AID 602386). The format is functional.
Chain of DNA (cytosine-5)-methyltransferase 1 (P26358 whole entry): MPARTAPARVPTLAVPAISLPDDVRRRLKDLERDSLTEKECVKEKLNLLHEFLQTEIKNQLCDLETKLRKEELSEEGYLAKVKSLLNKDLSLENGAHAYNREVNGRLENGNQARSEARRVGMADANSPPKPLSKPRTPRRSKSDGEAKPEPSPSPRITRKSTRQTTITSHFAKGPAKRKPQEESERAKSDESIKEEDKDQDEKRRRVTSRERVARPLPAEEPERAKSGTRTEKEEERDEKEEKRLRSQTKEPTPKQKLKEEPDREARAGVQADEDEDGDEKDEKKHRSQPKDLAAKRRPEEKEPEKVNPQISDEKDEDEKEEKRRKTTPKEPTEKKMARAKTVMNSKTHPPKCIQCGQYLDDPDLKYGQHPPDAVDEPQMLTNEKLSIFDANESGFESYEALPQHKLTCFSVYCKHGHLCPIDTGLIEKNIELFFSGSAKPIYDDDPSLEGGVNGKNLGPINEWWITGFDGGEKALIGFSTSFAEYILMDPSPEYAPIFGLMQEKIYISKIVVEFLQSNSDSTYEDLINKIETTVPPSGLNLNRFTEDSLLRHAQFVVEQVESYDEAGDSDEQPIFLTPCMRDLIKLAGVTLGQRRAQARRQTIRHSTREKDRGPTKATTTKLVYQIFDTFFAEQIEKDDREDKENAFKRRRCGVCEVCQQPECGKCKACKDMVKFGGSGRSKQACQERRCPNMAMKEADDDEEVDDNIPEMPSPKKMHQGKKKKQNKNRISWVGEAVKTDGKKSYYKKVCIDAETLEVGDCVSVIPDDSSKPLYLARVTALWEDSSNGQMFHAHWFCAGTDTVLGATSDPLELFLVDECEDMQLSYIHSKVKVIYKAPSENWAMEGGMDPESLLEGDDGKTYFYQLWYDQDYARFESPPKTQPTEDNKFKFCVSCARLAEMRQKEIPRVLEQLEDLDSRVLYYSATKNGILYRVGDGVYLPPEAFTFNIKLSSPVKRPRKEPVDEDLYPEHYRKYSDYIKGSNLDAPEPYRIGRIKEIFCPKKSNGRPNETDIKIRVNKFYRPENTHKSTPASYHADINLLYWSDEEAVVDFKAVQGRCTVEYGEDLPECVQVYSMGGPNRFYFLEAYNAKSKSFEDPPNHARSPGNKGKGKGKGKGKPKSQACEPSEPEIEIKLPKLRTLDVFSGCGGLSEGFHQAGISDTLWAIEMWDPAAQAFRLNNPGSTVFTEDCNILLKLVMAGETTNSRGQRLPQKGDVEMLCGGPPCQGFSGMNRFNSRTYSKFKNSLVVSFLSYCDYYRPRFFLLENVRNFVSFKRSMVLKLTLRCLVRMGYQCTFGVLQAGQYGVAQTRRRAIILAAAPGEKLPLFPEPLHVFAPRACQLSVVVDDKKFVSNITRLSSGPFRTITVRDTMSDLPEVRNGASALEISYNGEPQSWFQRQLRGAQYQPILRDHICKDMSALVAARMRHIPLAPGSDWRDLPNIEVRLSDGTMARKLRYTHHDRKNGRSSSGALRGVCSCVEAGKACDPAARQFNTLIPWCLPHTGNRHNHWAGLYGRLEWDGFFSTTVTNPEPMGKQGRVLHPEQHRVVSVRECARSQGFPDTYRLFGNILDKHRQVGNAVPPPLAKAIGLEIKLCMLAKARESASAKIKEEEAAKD
The target in assay [11] is T8, Tyrosine-protein phosphatase non-receptor type 7 (Homo sapiens, UniProt P35236).
T8 sequence (P35236 whole entry): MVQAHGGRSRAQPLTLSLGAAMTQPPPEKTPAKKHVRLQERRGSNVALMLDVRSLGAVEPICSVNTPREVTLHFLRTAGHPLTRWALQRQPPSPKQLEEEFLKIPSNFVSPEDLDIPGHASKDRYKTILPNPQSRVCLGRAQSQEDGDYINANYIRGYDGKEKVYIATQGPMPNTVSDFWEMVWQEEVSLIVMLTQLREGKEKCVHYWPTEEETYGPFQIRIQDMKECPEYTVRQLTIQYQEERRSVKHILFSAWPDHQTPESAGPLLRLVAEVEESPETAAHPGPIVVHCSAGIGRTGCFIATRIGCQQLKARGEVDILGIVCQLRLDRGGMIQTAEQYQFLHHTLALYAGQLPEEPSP
The assay can be described thus: redox-active compounds inhibiting HePTP phosphatase – biochemical, fluorescence, mechanism study (AID 2068). The format is functional.

The target of assay [12] is T7, Tyrosine-protein phosphatase non-receptor type 22. The assay can be described thus: inhibition of lymphoid tyrosine phosphatase LYP – biochemical, pCAP fluorogenic substrate, fluorescence, set 3, SAR follow-up (AID 449727). The format is functional.
Assay [13] deals with T5, Dual specificity protein phosphatase 3. Kind of assay: MOA VHR1 Fluorescent secondary assay for identification of redox-state modulating compounds. [Related pubchem assays (depositor defined):AID1654, AID1661, AID1878, AID1957].
For assay [14], the target named is T8, Tyrosine-protein phosphatase non-receptor type 7. Kind of assay: inhibition of hematopoietic tyrosine phosphatase HePTP – biochemical, set 2, SAR follow-up (AID 449736). The format is functional.
For assay [15], the target named is T5, Dual specificity protein phosphatase 3. The assay can be described thus: SAR VHR1 Fluorescent Assay for In Vitro dose response studies. [Related pubchem assays (depositor defined):AID1654, AID1661, AID1878, AID1992, AID2004, AID2070, AID2085]. The format is functional.
The target is the same in assay [16]. Kind of assay: SAR VHR1 absorbance Assay for In Vitro dose response studies. [Related pubchem assays (depositor defined):AID1654, AID1661, AID1878, AID1992, AID2004].
The target of assay [17] is Tyrosine-protein phosphatase non-receptor type 12 (Homo sapiens, UniProt Q05209). Kind of assay: SAR Selectivity Analysis of small molecule inhibitors of PEST using pCAP in a fluorescence assay. [Related pubchem assays (depositor defined):AID1779, AID1784, AID2135]. The format is functional.
Chain of Tyrosine-protein phosphatase non-receptor type 12 (Q05209 whole entry): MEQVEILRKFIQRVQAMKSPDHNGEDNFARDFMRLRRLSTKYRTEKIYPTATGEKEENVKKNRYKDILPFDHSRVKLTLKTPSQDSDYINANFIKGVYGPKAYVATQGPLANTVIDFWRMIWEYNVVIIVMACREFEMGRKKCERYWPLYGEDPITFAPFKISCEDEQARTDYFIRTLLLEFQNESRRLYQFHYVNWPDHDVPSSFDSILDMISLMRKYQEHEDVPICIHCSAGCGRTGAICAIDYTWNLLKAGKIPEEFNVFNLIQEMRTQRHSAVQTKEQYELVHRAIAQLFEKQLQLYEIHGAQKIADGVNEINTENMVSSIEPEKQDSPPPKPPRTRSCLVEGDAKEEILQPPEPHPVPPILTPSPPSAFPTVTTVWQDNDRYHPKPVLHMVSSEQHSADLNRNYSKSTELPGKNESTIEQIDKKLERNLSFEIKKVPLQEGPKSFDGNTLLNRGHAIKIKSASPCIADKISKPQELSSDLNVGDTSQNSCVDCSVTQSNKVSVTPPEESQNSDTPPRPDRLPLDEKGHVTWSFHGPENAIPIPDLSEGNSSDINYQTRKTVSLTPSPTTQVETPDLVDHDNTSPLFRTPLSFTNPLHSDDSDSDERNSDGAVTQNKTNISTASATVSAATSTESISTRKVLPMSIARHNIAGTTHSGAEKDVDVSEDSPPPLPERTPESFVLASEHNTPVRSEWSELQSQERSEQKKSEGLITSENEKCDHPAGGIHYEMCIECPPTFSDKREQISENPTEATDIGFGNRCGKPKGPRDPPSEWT
Assay [18] has as its target T9, Low molecular weight phosphotyrosine protein phosphatase (Homo sapiens, UniProt P24666).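 Also: Dose-response confirmation assay measuring inhibition of LMPTP enzyme activity by fluorescence intensity read-out.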
T9 sequence (P24666 whole entry): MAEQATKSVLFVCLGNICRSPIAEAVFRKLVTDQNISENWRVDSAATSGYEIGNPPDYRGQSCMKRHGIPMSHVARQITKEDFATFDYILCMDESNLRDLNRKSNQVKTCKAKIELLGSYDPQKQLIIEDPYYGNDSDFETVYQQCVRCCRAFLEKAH
The format is functional. The conditions noted are these: read-out: IC50_Mean.

Take `CCn1c(SCC(=O)Nc2ccc3c(c2)oc2ccccc23)nnc1-c1ccc(N)cc1`: the IC50 in the assay with HEK293 is 2.88 µM (active); on Estrogen receptor, 11.7 µM (active); in assay [3], > 100 µM (active). In addition, the EC50 in assay [1] is 7.96 µM (active); in assay [2], 7.16 µM (active).
For the compound `CS(=O)(=O)c1ccc2nc(NC(=O)Nc3ccccc3F)sc2c1`, the IC50 in assay [4] and in [6] was > 43.8 µM (not active) throughout. For the same compound, in [5], the EC50 was > 67.5 µM (inactive).
`Cc1cc(/C=C2/SC(=S)NC2=O)c(C)n1-c1cccc(Cl)c1`: the Ki in [7] was 82 µM (inactive).
On to `CC1=C(C(=O)OC(C)C)C(c2ccc(Cl)cc2)n2c(sc(=Cc3ccc(OCC(=O)O)cc3)c2=O)=N1` (stereo not given), for which the IC50 in assay [8] is 41.8 µM (active); in [9], 4.01 µM (active); in assay [10], 5.43 µM (active); in assay [11] it was 0.391 µM (active); in [12], 3.63 µM (active); in assay [13], 1.93 µM (active). For the same compound, the IC50 was 0.304 µM (active) in assay [14]; 12.3 µM (active) in assay [15]; 0.967 µM (active) in [16]; 1.68 µM (active) in [17]; 6.66 µM (active) in [18].

The values above are taken from ChEMBL document CHEMBL1201862, “PubChem BioAssay data set” (2004).
